Experimental data reported in patent US20260130933A1, “PHARMACEUTICAL COMPOSITION FOR PREVENTION OR TREATMENT OF NEPHROPATHY AND/OR DIABETES MELLITUS, COMPRISING ENAVOGLIFLOZIN” (DAEWOONG PHARMACEUTICAL CO., LTD., priority 2022, published 2026).

Assay: Example 2: phase 3 trial, enavogliflozin 0.3 mg vs dapagliflozin 10 mg once a day for 24 weeks added to metformin in patients with type 2 diabetes (same efficacy, exploratory and safety endpoints)
Format: in vivo, human
Method: Subjects who met the inclusion/exclusion criteria were administered a placebo of the clinical trial drug under single-blind (subject blinding) conditions during a 2-week run-in period while continuing to receive metformin. […] The randomized subjects were administered two tablets of the clinical trial drug for each administration group once a day, and then visited the institution at weeks 6, 12, 18, and 24 during the 24-week administration period to conduct efficacy and safety evaluations.
• 1. Change in HbA1c at week 24 after administration of clinical trial drug compared to Visit 2 (randomization)
• 1. Change in HbA1c at each time point of weeks 6, 12, and 18 after administration of clinical trial drug compared to Visit 2 (randomization) • 2. Change in FPG at each time point of weeks 6, 12, 18, and 24 after administration of clinical trial drug compared to Visit 2 (randomization) • 3. Proportion of subjects achieving HbA1c<7% at each time point of weeks 6, 12, 18, and 24 after administration of clinical trial drug • 4. Proportion of subjects achieving HbA1c<6.5% at each time point of weeks 6, 12, 18, and 24 after administration of clinical trial drug • 5. Proportion of subjects achieving therapeutic response (HbA1c change (HbA1c at Visit 2-HbA1c at each evaluation time point)>0.5% or HbA1c<7% at each evaluation time point compared to Visit 2 (randomization)) at each time point of weeks 6, 12, 18 and 24 after administration of clinical trial drug
• 1. Change in fasting c-peptide at each time point of weeks 6, 12, 18, and 24 after administration of clinical trial drug compared to Visit 2 (randomization) • 2. Change in body weight at each time point of weeks 6, 12, 18, and 24 after administration of clinical trial drug compared to Visit 2 (randomization) • 3. Change in fasting lipid concentration (total cholesterol, LDL-C, HDL-C, and triglycerides) at each time point of weeks 6, 12, 18, and 24 after administration of clinical trial drug compared to Visit 2 (randomization) • 4. Changes in systolic or diastolic blood pressure at each time point of weeks 6, 12, 18, and 24 after administration of clinical trial drug compared to Visit 2 (randomization) • 5. Changes in β-cell function and insulin resistance measured by HOMA-β and HOMA-IR at each time point of weeks 6, 12, 18, and 24 after administration of clinical trial drug compared to Visit 2 (randomization) • 6. Changes in renal function-related indicators (UACR, UGCR) measured by UACR at each time point of weeks 6, 12, 18, and 24 after administration of clinical trial drug compared to Visit 2 (randomization) • 7. Changes in obesity-related indicators (adiponectin, leptin) at each time point of weeks 6, 12, 18, and 24 after administration of clinical trial drug compared to Visit 2 (randomization)

[1] = week 6, per-protocol set, enavogliflozin 0.3 mg, dapagliflozin 10 mg
[2] = week 12, modified per-protocol set 1, enavogliflozin 0.3 mg, dapagliflozin 10 mg
[3] = week 12, per-protocol set, enavogliflozin 0.3 mg vs dapagliflozin 10 mg
[4] = week 12, per-protocol set, enavogliflozin 0.3 mg, dapagliflozin 10 mg

OC[C@H]1O[C@@H](c2cc(Cc3ccc(C4CC4)cc3)c(Cl)c3c2CCO3)[C@H](O)[C@@H](O)[C@@H]1O [Enavogliflozin, (2S,3R,4R,5S,6R)-2-(7-chloro-6 (4-cyclopropylbenzyl)-2,3-dihydrobenzofuran-4-yl)-6-(hydroxymethyl)tetrahydro-2H-pyran-3,4,5-triol]
Change from baseline in fasting c-peptide, ANCOVA LS mean (SE) [1]: −0.07(0.02) ng/mL | Change from baseline in fasting c-peptide, Mean (SD) [1]: −0.06(0.19) ng/mL | Change from baseline in fasting c-peptide, Median [1]: -0.03 ng/mL | FPG, Mean (SD) [1]: 118.44 mg/dL | FPG, Median [1]: 115.00 mg/dL | HbA1c, Mean (SD) [1]: 7.13% | HbA1c, Median [1]: 6.98% | Subjects achieving HbA1c target of <6.5%, (%) [1]: (12.63) % | Subjects achieving therapeutic glycemic response, (%) [1]: (78.95) % | body weight, Mean (SD) [1]: 68.61(11.27) kg | body weight, Median [1]: 67.30 kg | fasting c-peptide, Mean (SD) [1]: 0.66(0.24) ng/mL | fasting c-peptide, Median [1]: 0.60 ng/mL | FPG change from baseline, LS mean (SE) (week 12): −29.70(1.96) mg/dL | HOMA-IR change from baseline, LS mean (SE) (week 12): −1.58(0.17) | HOMA-β change from baseline, LS mean (SE) (week 12): 5.57(3.08) | HbA1c change from baseline, LS mean (SE) (week 12): −0.83(0.06) % p | LDL-C change from baseline, LS mean (SE) (week 12): 1.86(1.68) mg/dL | Subjects achieving HbA1c target of <7% (week 12): (68.09) % | Subjects achieving HbA1c<6.5% (week 12): 15.96% | Subjects achieving therapeutic response (HbA1c change >0.5% or HbA1c<7%) (week 12): 88.30% | UACR change from baseline, LS mean (SE) (week 12): −21.65(7.38) g/kg | UGCR change from baseline, LS mean (SE) (week 12): 64.70(2.58) mg/mg | diastolic blood pressure change from baseline, LS mean (SE) (week 12): −4.19(0.79) mmHg | fasting c-peptide change from baseline, LS mean (SE) (week 12): −0.08(0.02) ng/ml | leptin change from baseline, LS mean (SE) (week 12): −2.64(0.49) ng/mL | FPG change from baseline, LS mean difference (week 12, vs dapagliflozin): 0.42 mg/dL | HDL-C change from baseline, LS mean difference (week 12, vs dapagliflozin): 0.06 mg/dL | HOMA-IR change from baseline, LS mean difference (week 12, vs dapagliflozin): 0.02 | HOMA-β change from baseline, LS mean difference (week 12, vs dapagliflozin): −3.17 | HbA1c change from baseline, LS mean difference (week 12, vs dapagliflozin): −0.03 % p | LDL-C change from baseline, LS mean difference (week 12, vs dapagliflozin): 1.30 mg/dL | Odds ratio for achieving HbA1c<6.5% (week 12, vs dapagliflozin): 0.51 | Odds ratio for achieving HbA1c<7% (week 12, vs dapagliflozin): 1.21 | Odds ratio for achieving therapeutic response (week 12, vs dapagliflozin): 2.04 | UACR change from baseline, LS mean difference (week 12, vs dapagliflozin): −18.27 | UGCR change from baseline, LS mean difference (week 12, vs dapagliflozin): 19.57 mg/mg | body weight change from baseline, LS mean difference (week 12, vs dapagliflozin): -0.19 kg | diastolic blood pressure change from baseline, LS mean difference (week 12, vs dapagliflozin): 0.16 mmHg | fasting c-peptide change from baseline, LS mean difference (week 12, vs dapagliflozin): 0.01 ng/mL | leptin change from baseline, LS mean difference (week 12, vs dapagliflozin): 0.07 ng/mL | systolic blood pressure change from baseline, LS mean difference (week 12, vs dapagliflozin): 0.26 mmHg | total cholesterol change from baseline, LS mean difference (week 12, vs dapagliflozin): 3.01 mg/dL | triglyceride change from baseline, LS mean difference (week 12, vs dapagliflozin): 2.57 mg/dL | Subjects achieving HbA1c target of <7% (week 12, listed as enavogliflozin): 68.09% | Change from baseline in total cholesterol, ANCOVA LS mean difference (week 12, modified per-protocol set 1, enavogliflozin 0.3 mg vs dapagliflozin 10 mg): 3.01 mg/dL | Change from baseline in Total cholesterol, ANCOVA LS mean (SE) [2]: 7.26(1.98) mg/dL | Change from baseline in Total cholesterol, Mean (SD) [2]: 5.74(18.70) mg/dL | Change from baseline in total cholesterol, Median [2]: 6.00 mg/dL | fasting Total cholesterol, Mean (SD) [2]: 157.39(31.50) mg/dL | fasting Total cholesterol, Median [2]: 150.00 mg/dL | Change from baseline in FPG, ANCOVA LS mean difference [3]: 0.42 mg/dL | Change from baseline in HbA1c, ANCOVA LS mean difference [3]: −0.03 % p | Change from baseline in body weight, ANCOVA LS mean difference [3]: -0.19 kg | Change from baseline in fasting c-peptide, ANCOVA LS mean difference [3]: 0.01 ng/mL | Odds ratio for achieving HbA1c target of <6.5%, logistic regression model [3]: 0.51 | Odds ratio for achieving therapeutic glycemic response, logistic regression model [3]: 2.04 | Change from baseline in FPG, ANCOVA LS mean (SE) [4]: -29.70 mg/dL | Change from baseline in FPG, Mean (SD) [4]: -27.74 mg/dL | Change from baseline in FPG, Median [4]: -26.00 mg/dL | Change from baseline in HbA1c, ANCOVA LS mean (SE) [4]: −0.83 % p | Change from baseline in HbA1c, Mean (SD) [4]: −0.77 % p | Change from baseline in HbA1c, Median [4]: −0.65 % p | Change from baseline in body weight, ANCOVA LS mean (SE) [4]: −2.81(0.23) kg | Change from baseline in body weight, Mean (SD) [4]: −2.78(2.48) kg | Change from baseline in body weight, Median [4]: -2.75 kg | Change from baseline in fasting c-peptide, ANCOVA LS mean (SE) [4]: −0.08(0.02) ng/mL | Change from baseline in fasting c-peptide, Mean (SD) [4]: −0.07(0.21) ng/mL | Change from baseline in fasting c-peptide, Median [4]: -0.07 ng/mL | FPG, Mean (SD) [4]: 117.00 mg/dL
